This passage reports IC50 results from patent publication US20230322785A1, “ADENOSINE A2A AND A2B RECEPTOR DUAL ANTAGONISTS FOR IMMUNO-ONCOLOGY” (Merck Sharp & Dohme LLC, priority 2020, published 2023).

For the assay, the target named is T1, human A2A adenosine receptor (Homo sapiens, UniProt P29274).
T1 construct: expressed in transfected cells; host or cells: HEK293 or CHO cells
Nature of the assay: A2A binding affinity, Method (B): scintillation proximity assay (SPA) with [3H]SCH58261. The settings on record: membranes of HEK293 or CHO cells expressing the human receptor. In outline:
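Membranes from HEK293 or CHO cells expressing the receptor were pretreated with 20 µg/mL adenosine deaminase for 15 min, then bound to WGA SPA beads. [3H]SCH58261 was added at 1.25 nM in Ca/Mg-free DPBS with 10 mM MgCl2, incubated 1 h at RT, then settled 1 h. Non-specific binding used 1 µM CGS 15943. IC50 came from 4-parameter logistic fits.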
(In general: SPA uses beads or plates that emit light when radiolabelled molecules are held near them.)

pIC50: −log10 of the molar value.

T1 sequence (P29274 whole entry): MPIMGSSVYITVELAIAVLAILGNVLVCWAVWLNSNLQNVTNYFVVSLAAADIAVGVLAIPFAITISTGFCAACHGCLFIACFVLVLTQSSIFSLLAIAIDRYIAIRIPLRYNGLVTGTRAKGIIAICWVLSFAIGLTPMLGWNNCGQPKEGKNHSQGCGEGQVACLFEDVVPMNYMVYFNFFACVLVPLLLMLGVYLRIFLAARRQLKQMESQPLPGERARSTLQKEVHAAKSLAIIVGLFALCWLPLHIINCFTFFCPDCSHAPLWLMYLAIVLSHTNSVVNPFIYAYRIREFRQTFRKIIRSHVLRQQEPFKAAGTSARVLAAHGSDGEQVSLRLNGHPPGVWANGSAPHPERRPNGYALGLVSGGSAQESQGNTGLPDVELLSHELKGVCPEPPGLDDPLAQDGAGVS

Regarding `COc1cccc2c1nc(N)n1nc(CC(=O)N[C@H]3CCOc4ccncc43)nc21` [Example 4.8, (S)-2-(5-amino-7-methoxy-[1,2,4]triazolo[1,5-c]quinazolin-2-yl)-N-(3,4-dihydro-2H-pyrano[3,2-c]pyridin-4-yl)acetamide], the pIC50 (as a rule, −log10 of the IC50, conventionally taken in molar units) was 6.95.

`COc1cccc2c1nc(N)n1nc(CC(=O)NCc3cccnc3)nc21` [Example 4.3, 2-(5-amino-7-methoxy-[1,2,4]triazolo[1,5-c]quinazolin-2-yl)-N-(pyridin-3-ylmethyl)acetamide] showed a pIC50 of 7.35.

`COc1cccc2c1nc(N)n1nc(CN(Cc3ccc(C(F)(F)F)cc3)S(=O)(=O)C(F)(F)F)nc21` [Example 19.3, N-((5-amino-7-methoxy-[1,2,4]triazolo[1,5-c]quinazolin-2-yl)methyl)-1,1,1-trifluoro-N-(4-(trifluoromethyl)benzyl)methanesulfonamide] had a pIC50 of 6.94. Against the preceding molecule, the pIC50 is 0.41 log units lower.

The molecule `CCCN(Cc1ccc(C(F)(F)F)cc1)Cc1nc2c3cccc(OC)c3nc(N)n2n1` [Example 15.3, 7-methoxy-2-((propyl(4-(trifluoromethyl)benzyl)amino)methyl)-[1,2,4]triazolo[1,5-c]quinazolin-5-amine] gave a pIC50 of 8.64. This pIC50 is 1.70 log units higher than that of the molecule before.

`COc1cccc2c1nc(N)n1nc(CN(Cc3ccc(OC(F)(F)F)cc3)S(=O)(=O)C(F)(F)F)nc21` [Example 19.4, N-((5-amino-7-methoxy-[1,2,4]triazolo[1,5-c]quinazolin-2-yl)methyl)-1,1,1-trifluoro-N-(4-(trifluoromethoxy)benzyl)methanesulfonamide] gave a pIC50 of 7.30.

Regarding `COc1cccc2c1nc(N)n1nc(CNC(=O)CCc3ccc(C(F)(F)F)cc3)nc21` [Example 2.3], the pIC50 was 8.35.

As for `COc1cccc2c1nc(N)n1nc(CN(CCc3ccc(C(F)(F)F)cc3)CC3CCC3)nc21` [Example 15.12, 2-(((cyclobutylmethyl)(4-(trifluoromethyl)phenethyl)amino)methyl)-7-methoxy-[1,2,4]triazolo[1,5-c]quinazolin-5-amine], the pIC50 is 7.63.

In turn, `C=CCN(Cc1ccc(OC(F)(F)F)cc1)Cc1nc2c3cccc(OC)c3nc(N)n2n1` [Entry 21.2] had a negative logarithm of the IC50 (pIC50) of 8.51.

Regarding `COc1cccc2c1nc(N)n1nc(CN(CCC3CC3)Cc3ccc(C(F)(F)F)cc3)nc21` [Example 15.6, 2-(((2-cyclopropylethyl)(4-(trifluoromethyl)benzyl)amino)methyl)-7-methoxy-[1,2,4]triazolo[1,5-c]quinazolin-5-amine], the pIC50 is 8.15.

For the molecule `COc1cccc2c1nc(N)n1nc(CNCc3cccc(C(F)(F)F)c3)nc21` [Example 8.5, 7-methoxy-2-(((3-(trifluoromethyl)benzyl)amino)methyl)-[1,2,4]triazolo[1,5-c]quinazolin-5-amine], the pIC50 was 7.95. This pIC50 is 0.20 log units lower than that of the molecule before.

`COc1cccc2c1nc(N)n1nc(CNCc3ccc(C(C)(C)C)cc3)nc21` [Example 7.6, 2-(((4-(tert-butyl)benzyl)amino)methyl)-7-methoxy-[1,2,4]triazolo[1,5-c]quinazolin-5-amine] had a pIC50 of 8.37.

In turn, `COc1cccc2c1nc(N)n1nc(CC(=O)NCc3ccc(C(F)(F)F)cc3)nc21` [Example 4.4, 2-(5-amino-7-methoxy-[1,2,4]triazolo[1,5-c]quinazolin-2-y1)-N-(4-(trifluoromethyl)benzyl)acetamide] showed a pIC50 of 8.03.

In the case of `COc1cccc2c1nc(N)n1nc(CN(Cc3ccc(Br)cc3)CC3CC3)nc21` [Example 15.17, 2-(((4-bromobenzyl)(cyclopropylmethyl)amino)methyl)-7-methoxy-[1,2,4]triazolo[1,5-c]quinazolin-5-amine], the pIC50 is 8.49.

With `CCN(Cc1ccc(C(F)(F)F)cc1)Cc1nc2c3cccc(OC)c3nc(N)n2n1` [Example 15.1, 2-((ethyl(4-(trifluoromethyl)benzyl)amino)methyl)-7-methoxy-[1,2,4]triazolo[1,5-c]quinazolin-5-amine], the pIC50 was 8.49.

`COc1cccc2c1nc(N)n1nc(CN[C@H](C)C(F)(F)F)nc21` [Example 10.8, (R)-7-methoxy-2-(((1,1,1-trifluoropropan-2-yl)amino)methyl)-[1,2,4]triazolo[1,5-c]quinazolin-5-amine] gave a pIC50 of 8.41. This pIC50 and that of the molecule before are within 0.2 log units of each other.

`COc1cccc2c1nc(N)n1nc(CNC(=O)NCc3ccc(Cl)cc3)nc21` [Example 20.4, 1-((5-amino-7-methoxy-[1,2,4]triazolo[1,5-c]quinazolin-2-yl)methyl)-3-(4-chlorobenzyl)urea] showed a pIC50 of 8.24. This pIC50 and that of the molecule before are within 0.2 log units of each other.

The molecule `COc1cccc2c1nc(N)n1nc(CN(Cc3ccc(OC(C)C)nc3)CC3CC3)nc21` [Example 16.7, 2-(((cyclopropylmethyl)((6-isopropoxypyridin-3-yl)methyl)amino)methyl)-7-methoxy-[1,2,4]triazolo[1,5-c]quinazolin-5-amine] gave a pIC50 of 7.87.

The molecule `COc1cccc2c1nc(N)n1nc(CN(C)c3cccnc3Br)nc21` [Example 10.3, 2-(((2-bromopyridin-3-yl)(methyl)amino)methyl)-7-methoxy-[1,2,4]triazolo[1,5-c]quinazolin-5-amine] had a pIC50 of 7.38. Against the preceding molecule, the pIC50 is 0.49 log units lower.

On to `COc1cccc2c1nc(N)n1nc(CNCC(F)(F)F)nc21` [Example 10.5, 7-methoxy-2-(((2,2,2-trifluoroethyl)amino)methyl)-[1,2,4]triazolo[1,5-c]quinazolin-5-amine], for which the pIC50 is 8.23.

As for `CCNCc1nc2c3cccc(OC)c3nc(N)n2n1` [Example 10.4, 2-((ethylamino)methyl)-7-methoxy-[1,2,4]triazolo[1,5-c]quinazolin-5-amine], the pIC50 is 7.34.

For `COc1cccc2c1nc(N)n1nc(CCN[C@@H](C)c3ccc(C(F)(F)F)cc3)nc21` [Example 22.7, (S)-7-methoxy-2-(2-((1-(4-(trifluoromethyl)phenyl)ethyl)amino)ethyl)-[1,2,4]triazolo[1,5-c]quinazolin-5-amine], the pIC50 was 7.56.

Turning to `COc1cccc2c1nc(N)n1nc(CN[C@@H](C)c3ccc(C(F)(F)F)cc3)nc21` [Example 7.2, (S)-7-methoxy-2-(((1-(4-(trifluoromethyl)phenyl)ethyl)amino)methyl)-[1,2,4]triazolo[1,5-c]quinazolin-5-amine], the negative logarithm of the IC50 (pIC50) was 8.14. Compared with the last molecule, the pIC50 is 0.58 log units higher.

For the molecule `COc1cccc2c1nc(N)n1nc(CN(CC(C)O)CC(C)O)nc21` (centres unmarked) [Example 10.13, 1,1-(((5-amino-7-methoxy-[1,2,4]triazolo[1,5-c]quinazolin-2-yl)methyl)azanediyl)bis(propan-2-ol)], the pIC50 was 7.49.

In turn, `COc1cccc2c1nc(N)n1nc(CN(Cc3ccc(C(F)(F)F)cc3)S(C)(=O)=O)nc21` [Example 19.2, N-((5-amino-7-methoxy-[1,2,4]triazolo[1,5-c]quinazolin-2-yl)methyl)-N-(4-(trifluoromethyl)benzyl)methanesulfonamide] had a pIC50 of 8.12.

`COc1cccc2c1nc(N)n1nc(CNC(=O)OCc3ccccc3)nc21` [Example 6.1, benzyl ((5-amino-7-methoxy-[1,2,4]triazolo[1,5-c]quinazolin-2-yl)methyl)carbamate] had a pIC50 of 8.23.

`COc1cccc2c1nc(N)n1nc(CN(Cc3ccc(OC4CCCCC4)nc3)CC3CC3)nc21` [Example 16.6, 2-((((6-(cyclohexyloxy)pyridin-3-yl)methyl)(cyclopropylmethyl)amino)methyl)-7-methoxy-[1,2,4]triazolo[1,5-c]quinazolin-5-amine]: the pIC50 is 8.18. This pIC50 and that of the molecule before are within 0.2 log units of each other.
